Consider seven compounds from ChEMBL document CHEMBL1201862, “PubChem BioAssay data set” (2004).

Among the test systems are UO-31; U-251; A498; SNB-78; NCI-H23; SK-OV-3; OVCAR-3; KM-20L2; MCF7; M19-MEL; LOX IMVI; SW-620; HOP-92; M14; CAKI-1; TK-10; 786-0; SR; PC-3; MDA-N.
Common to all, as to test: growth of human tumour cells (NCI), 48 h

Where a name gives a salt, the structure may show the parent alone.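 The compound was tested at five concentrations on cells cultured in 96-well plates, with a 48-hour exposure period. Here, GI50 denotes the concentration required for 50% inhibition of growth.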 Activity calls are given as the source filed them. Rule as the data show it: active = GI50 up to about 1.1 µM and inactive = higher. A value given as a limit tells only on which side of the number the result lay.

On to `O=[N+]([O-])c1ccc(Nc2cccc3c4cc[nH]c(-c5ccccc5)c-4nc23)c([N+](=O)[O-])c1`, for which the GI50 in the assay on UO-31, in the assay on U-251, in the assay on A498, in the assay on SNB-78, with NCI-H23 and in the assay on SK-OV-3 was > 100 µM (inactive) in each case. Besides, the GI50 in the assay on OVCAR-3 is > 100 µM (inactive); with KM-20L2 it was > 100 µM (inactive); with MCF7 it was 54.2 µM (inactive); in the assay with M19-MEL, > 100 µM (inactive); in the assay with LOX IMVI, > 100 µM (inactive); with SW-620, > 100 µM (inactive). In addition, the GI50 in the assay on HOP-92 was > 100 µM (inactive).
For the compound `CCOC(=O)/C(C#N)=C(N)/C(=N\Nc1cccc(C(F)(F)F)c1)C(=O)OCC`, the GI50 in the assay with UO-31, in the assay on U-251, in the assay on A498, in the assay on SNB-78, with NCI-H23 and in the assay with SK-OV-3 was > 100 µM (inactive) throughout. In addition, the GI50 in the assay on OVCAR-3, in the assay on KM-20L2, in the assay with M14, in the assay on M19-MEL, with LOX IMVI and in the assay on CAKI-1 was > 100 µM (inactive) in each case. Moreover, the GI50 with TK-10, in the assay on 786-0, in the assay on SW-620, in the assay with SR and with HOP-92 was > 100 µM (inactive) each time.
Turning to `CCOC(=O)C(C)NC(=O)N(C)C12CC3CC(CC(C3)C1)C2` (stereo not drawn), the GI50 with UO-31 was 175 µM (inactive); in the assay with U-251 it was 308 µM (inactive); in the assay with A498, 116 µM (inactive); with SNB-78, 277 µM (inactive); in the assay on NCI-H23 it was 185 µM (inactive); in the assay with SK-OV-3, 237 µM (inactive). Further, the GI50 in the assay with OVCAR-3 is 149 µM (inactive); in the assay on KM-20L2 it was 199 µM (inactive); in the assay with MCF7, 139 µM (inactive); in the assay on M19-MEL, 177 µM (inactive); in the assay with LOX IMVI, 116 µM (inactive); in the assay on CAKI-1, 231 µM (inactive). Also, the GI50 in the assay with SW-620 is 218 µM (inactive); in the assay with HOP-92, 20.7 µM (inactive).
On to `CS(=O)(=O)OCCN(CCOS(C)(=O)=O)c1ccc(/C=N/c2ccc(-c3csc(COc4ccccc4)n3)cc2)cc1`, for which the GI50 in the assay on UO-31 is 0.65 µM (active); with U-251 it was 7.24 µM (inactive); in the assay with A498 it was 2.6 µM (inactive); in the assay with PC-3, 7.06 µM (inactive); with SNB-78 it was 18.7 µM (inactive); in the assay on NCI-H23 it was 2.21 µM (inactive). The GI50 in the assay with SK-OV-3 was 1.69 µM (inactive); in the assay on OVCAR-3 it was 1.24 µM (inactive); in the assay with KM-20L2, 3.14 µM (inactive); in the assay on MDA-N, 11 µM (inactive); in the assay on M14, 5.6 µM (inactive); with MCF7, 5.42 µM (inactive). Further, the GI50 with M19-MEL was 13.4 µM (inactive); in the assay with LOX IMVI, 4.27 µM (inactive); in the assay on CAKI-1, 0.853 µM (active); in the assay on TK-10, 3.05 µM (inactive); in the assay with 786-0, 0.429 µM (active); in the assay with SW-620, 8.09 µM (inactive). Also, the values for the GI50 in the assay on SR and in the assay on HOP-92 were 0.222 µM (active) and 15.6 µM (inactive), respectively.
As to `COC(=O)C1=C(C(=O)OC)SC(=C(/N=N/c2ccccc2)c2ccccc2)S1`, the GI50 in the assay on UO-31, in the assay on U-251, in the assay with A498, in the assay on SNB-78, with NCI-H23 and with SK-OV-3 was > 100 µM (inactive) in each case. The GI50 is 61.2 µM (inactive) in the assay on OVCAR-3; > 100 µM (inactive) in the assay on KM-20L2; 45.8 µM (inactive) in the assay on M14; > 100 µM (inactive) in the assay on M19-MEL; > 100 µM (inactive) in the assay with LOX IMVI; > 100 µM (inactive) in the assay with CAKI-1. Moreover, the GI50 is > 100 µM (inactive) in the assay on TK-10; 50.8 µM (inactive) in the assay with 786-0; > 100 µM (inactive) in the assay with SW-620; > 100 µM (inactive) in the assay on SR; > 100 µM (inactive) in the assay with HOP-92.
As for `CCOC(=O)Nc1ccc(S(=O)(=O)OC)cc1.CCOC(=O)Nc1ccc(S(=O)(=O)OC)cc1.NC(=O)NCCO`, the GI50 in the assay with UO-31 is > 50 µM (inactive); with U-251, 23 µM (inactive); in the assay with A498, > 50 µM (inactive); in the assay on SNB-78, > 50 µM (inactive); in the assay with NCI-H23, > 50 µM (inactive); with SK-OV-3 it was > 50 µM (inactive). For the same compound, the GI50 was > 50 µM (inactive) in the assay on OVCAR-3; > 50 µM (inactive) with KM-20L2; 42.4 µM (inactive) in the assay with M14; 29.9 µM (inactive) in the assay on M19-MEL; 21.3 µM (inactive) in the assay on LOX IMVI; 48.6 µM (inactive) with CAKI-1. For the same compound, the GI50 in the assay on TK-10 is 48 µM (inactive); in the assay with 786-0, 19.9 µM (inactive); in the assay with SW-620 it was 28.8 µM (inactive); in the assay with SR, > 50 µM (inactive); in the assay with HOP-92, > 50 µM (inactive).
For `O=C1c2c(O)cccc2-c2nn(CCNCCO)c3ccc(NCCNCCO)c1c23` [LOSOXANTRONE HYDROCHLORIDE], the GI50 in the assay with UO-31 is 1.52 µM (inactive); in the assay with U-251 it was 0.0122 µM (active); with A498 it was < 0.0113 µM (active); in the assay with PC-3, 0.16 µM (active); with SNB-78, 0.634 µM (active); with NCI-H23 it was 0.0338 µM (active). Also, the GI50 in the assay with SK-OV-3 was 0.0735 µM (active); in the assay on OVCAR-3 it was 0.598 µM (active); in the assay on KM-20L2 it was 1.66 µM (inactive); in the assay with MDA-N, 0.48 µM (active); in the assay with M14 it was 0.244 µM (active); with MCF7, < 0.01 µM (active). The GI50 with M19-MEL is 0.16 µM (active); with LOX IMVI, 0.0667 µM (active); in the assay on CAKI-1, 0.0552 µM (active); in the assay with TK-10 it was 0.685 µM (active); in the assay on 786-0, < 0.0185 µM (active); in the assay on SW-620 it was 0.116 µM (active). Further, the GI50 in the assay on SR is < 0.01 µM (active); in the assay on HOP-92 it was 0.0285 µM (active).
